Data: ChEMBL document CHEMBL1128408, “Further evidence supporting the importance of and the restrictions on a carbon-centered radical for high antimalarial activity of 1,2,4-trioxanes like artemisinin” (J Med Chem, 1995)
Converted amounts (≈) assume the structure as drawn.

Each molecule was assayed on Plasmodium falciparum (assay: In vitro inhibitory activity against Chloroquine-sensitive Plasmodium falciparum NF54 as [3H]hypoxanthine incorporation). Details: not given.
Format: functional, organism-based

Row | SMILES | IC50 [µg/mL]
1 | CO[C@H]1O[C@@]2(C)CC[C@H]3CCC[C@@H](CCO)[C@]31OO2 | 0.034 (≈ 0.125 µM)

Same assay, conditions: Plasmodium falciparum; read-out: IC50

Row | SMILES | IC50 [µg/mL]
2 | CO[C@H]1O[C@]2(C)OO[C@]13[C@H](CCO)CCC[C@@H]3C[C@@H]2C[Si](C)(C)C | > 1
3 | CO[C@H]1O[C@]2(C)OO[C@]13[C@H](CCO)CCC[C@@H]3C[C@@H]2C | 0.36 (≈ 1.26 µM)
4 | C[C@@H]1CC[C@H]2[C@@H](C)C(=O)O[C@@H]3O[C@@]4(C)CC[C@@H]1[C@]32OO4 [ARTEMISININ] | 0.003 (≈ 0.0106 µM)
5 | CO[C@H]1O[C@]2(C)OO[C@]13CCCC[C@@H]3C[C@H]2Cc1ccccc1 | 0.098 (≈ 0.308 µM)
6 | CO[C@H]1O[C@]2(C)OO[C@]13[C@H](CCO)CCC[C@@H]3C[C@H]2Cc1ccccc1 | 0.003 (≈ 0.00828 µM)
7 | CO[C@H]1O[C@]2(C)OO[C@]13[C@H](CCO)CCC[C@@H]3C[C@H]2C[Si](C)(C)C | 0.086 (≈ 0.24 µM)
8 | CO[C@H]1O[C@]2(C)OO[C@]13CCCC[C@@H]3C[C@H]2c1ccccc1 | 0.61 (≈ 2 µM)
9 | CO[C@H]1O[C@]2(C)OO[C@]13[C@H](CCO)CCC[C@@H]3C[C@@H]2Cc1ccccc1 | 0.6 (≈ 1.66 µM)
10 | CO[C@H]1O[C@@]2(C)CC[C@H]3CCC[C@@H](CCO)[C@]31OO2 | 0.034 (≈ 0.125 µM)
11 | CO[C@H]1O[C@]2(C)OO[C@]13[C@H](CCO)CCC[C@@H]3C[C@H]2C | 0.0022 (≈ 0.00768 µM)
12 | CO[C@H]1O[C@@]2(C)CC[C@H]3CCCC[C@]31OO2 | 0.22 (≈ 0.964 µM)
